Read-outs that look alike come from different tables or passages of the source.
System: HCV Huh-luc/neo-ET replicon cells
Experiment: Luciferase-Based HCV Replicon Assay (EC50 (1b))
Assay type: cell-based
Settings: Hepatitis C virus, HCV Huh-luc/neo-ET replicon cells, 72 hours, luciferase activity
Method: Luciferase-Based HCV Replicon Assay Protocol (EC50 (1b))
The cell culture component of the assay is performed essentially as described by Bartenschlager et al., Hepatology 2002, 35, 694-703, wherein exponentially growing HCV Huh-luc/neo-ET replicon cells were seeded at 6×10^3 cells/well in 96 well assay plate. 24 hours later the cells were treated with various concentrations of compound or combination of compounds in triplicate using both fixed ratios and checkerboard matrices of test agents and cultured for 72 hours. The luciferase activity in the wells was determined using Bright-Glo reagent (Promega, Madison, Wis.) with a luminometer (Wallac 1420 Multilabel HTS Counter Victor 2). The background control was replicon cells treated with 100 nM BILN-2061, an inhibitor of the HCV protease. % Inhibition was determined for each compound concentration in relation to the negative (no compound) control to calculate the EC50(1b).

[1] = read-out: EC50(1b) concentration

Structure (SMILES) | EC50 (read-out: EC50 (1b)) | EC50 [1]
CS(=O)(=O)Nc1ccc2c(c1)S(=O)(=O)N=C(C1=C(O)[C@@H]3C4CCC(CC4)[C@@H]3N(Cc3ccc(F)c(Cl)c3)C1=O)N2 [Example 8, N-{3-[(2S,7R)-3-(3-Chloro-4-fluoro-benzyl)-6-hydroxy-4-oxo-3-aza-tricyclo[6.2.2.0^2,7]dodec-5-en-5-yl]-1,1-dioxo-1,4-dihydro-1λ^6-benzo[1,2,4]thiadiazin-7-yl}-methanesulfonamide] | < 5 nM | < 25 nM
CS(=O)(=O)Nc1ccc2c(c1)S(=O)(=O)NC(C1=C(O)[C@@H]3[C@H]4CC[C@H](C4)[C@@H]3N(Cc3cccs3)C1=O)=N2 [Example 27, N-{3-[(1R,2S,7R,8S)-6-Hydroxy-4-oxo-3-thiophen-2-ylmethyl-3-aza-tricyclo[6.2.1.0^2,7]undec-5-en-5-yl]-1,1-dioxo-1,2-dihydro-1λ^6-benzo[1,2,4]thiadiazin-7-yl}-methanesulfonamide] | 5 to 25 nM | < 25 nM
CS(=O)(=O)Nc1ccc2c(c1)S(=O)(=O)N=C(C1=C(O)[C@@H]3C4CCC(CC4)[C@@H]3N(Cc3ccc(F)cc3Cl)C1=O)N2 [Example 5, N-{3-[(2S,7R)-3-(2-Chloro-4-fluoro-benzyl)-6-hydroxy-4-oxo-3-aza-tricyclo[6.2.2.0^2,7]dodec-5-en-5-yl]-1,1-dioxo-1,4-dihydro-1λ^6-benzo[1,2,4]thiadiazin-7-yl}-methanesulfonamide] | 5 to 25 nM | < 25 nM
CS(=O)(=O)Nc1ccc2c(c1)S(=O)(=O)NC(C1=C(O)[C@@H]3[C@H]4CC[C@H](C4)[C@@H]3N(CC3CCCCC3)C1=O)=N2 [Example 28] | 5 to 25 nM | < 25 nM
CS(=O)(=O)Nc1ccc2c(c1)S(=O)(=O)NC(C1=C(O)[C@@H]3C4CCC(CC4)[C@@H]3N(Cc3cccs3)C1=O)=N2 [Example 16, N-{3-[(2S,7R)-6-Hydroxy-4-oxo-3-thiophen-2-ylmethyl-3-aza-tricyclo[6.2.2.0^2,7]dodec-5-en-5-yl]-1,1-dioxo-1,2-dihydro-1λ^6-benzo[1,2,4]thiadiazin-7-yl}-methanesulfonamide] | 5 to 25 nM | < 25 nM
CS(=O)(=O)Nc1ccc2c(c1)S(=O)(=O)NC(C1=C(O)[C@@H]3C4CCC(CC4)[C@@H]3N(Cc3ccc(F)c(F)c3F)C1=O)=N2 [Example 18, N-{3-[(2S,7R)-6-Hydroxy-4-oxo-3-(2,3,4-trifluoro-benzyl)-3-aza-tricyclo[6.2.2.0^2,7]dodec-5-en-5-yl]-1,1-dioxo-1,2-dihydro-1λ^6-benzo[1,2,4]thiadiazin-7-yl}-methanesulfonamide] | 5 to 25 nM | < 25 nM
CS(=O)(=O)Nc1ccc2c(c1)S(=O)(=O)N=C(C1=C(O)[C@@H]3[C@H]4CC[C@H](C4)[C@@H]3N(Cc3ccc(F)cc3Cl)C1=O)N2 [Example 1, (1R,2S,7R,8S)—N-{3-[3-(2-Chloro-4-fluoro-benzyl)-6-hydroxy-4-oxo-3-aza-tricyclo[6.2.1.0^2,7]undec-5-en-5-yl]-1,1-dioxo-1,4-dihydro-1λ^6-benzo[1,2,4]thiadiazin-7-yl}-methanesulfonamide] | < 5 nM | < 25 nM
CS(=O)(=O)Nc1ccc2c(c1)S(=O)(=O)NC(C1=C(O)[C@@H]3[C@@H]4CC[C@@H](C4)[C@@H]3N(Cc3cccc(F)c3)C1=O)=N2 [Example 30] | 5 to 25 nM | < 25 nM
